Measurements reported in patent US7476401B2, “Protein and peptide delivery to mammalian cells in vitro” (Mirus Bio LLC, priority 2003, dated 2009).

Test system: HeLa cells
Assay: Protein delivery to HeLa cells, visualized by fluorescence confocal microscopy
Assay type: cell-based
Details: technique #2, FIG. 2B
Protocol: HeLa cells were maintained in DMEM containing 10% fetal bovine serum. For polypeptide delivery, cells were plated in 6-well plates containing glass cover slips at a density of 50,000-100,000 cells per well and grown for 24-48 hours before incubation with polypeptide formulations.
Two different techniques were used for contacting polypeptide formulations with cells. In both techniques, cells were grown to 30-70% confluency and washed once with 2 ml 37° C. PBS prior to addition of polypeptide formulations.
Technique #1: Peptide formulations were diluted by addition of 150 μl 37° C. PBS (180-200 μl total volume). Formulations were than added to cells on cover slips. Following a 5 min incubation at room temperature (RT) 0.8 ml 37° C. DMEM was added to each well and cells were again incubated for 5 min at RT. Media was then aspirated off cells and 2.0 ml DMEM containing 10% bovine serum was added. […]
Visualization of polypeptide delivery to cells: In order to visually analyze polypeptide delivery, cells were washed 3× with PBS, fixed for 30 min at 4° C. in PBS containing 4% formaldehyde and washed 3× with PBS. Cover slips were then mounted onto slides for fluorescence microscopy using a Zeiss LSM510 laser confocal microscope. Rhodamine was detected by exciting with a HeNe laser at 543 nm and detecting with a 560 nm long pass filter. […]

modification #26: Rhodamine-labeled Bovine Serum Albumin modified with chlorodimethyloctadecylsilane, dried, hydrated with PBS
uptake of modified protein by cells: uptake of BSA
